According to patent US11723946B2, “Methods for regulating transcription of multiple genes and expression of multiple targets” (CHINA MEDICAL UNIVERSITY, priority 2014, dated 2023):

What was measured:
NF-κB [1] = assay: Whole animal bioluminescent imaging, LPS-induced NF-κB/luc transgenic mice; format: in vivo
Source text: Mice: The NF-κB/luc transgenic mice bearing the luciferase transgene driven by two copies of the NF-kappaB regulatory elements were mated with wild-type FVB mice to generate the hybrid NF-κB/luc transgenic offspring for the experiments. Whole animal bioluminescent imaging: 15 mice with age of 6˜8 weeks were randomly divided into three groups. The group 1 was the blank group; the group 2 was control group; and the group 3 was experimental group. The mice of the group 2 and the group 3 were administration with 100 ul of […] lipopolysaccharide (LSP) solution to induce the inflammation in the mice by intraperitoneal injection (IP injection). As the blank control, the mice of group 1 were administered with 100 μl of PBS by IP injection. After the LPS-injection for 5 minutes, the mice of the group 3 were further injected with 20 μl solution that contains 0.5 mg/Kg of the present polypeptide by IP injection. In contrast, the mice of the group 2 and the […] were injected with 20 μul of water. […] For in vivo imaging mice were anesthetized with isoflurane and injected intraperitoneally with 150 mg/kg luciferin. After 10 minutes, the mice were placed face up and imaged for 1 min with the camera set at the highest sensitivity by IVIS Imaging System-200 (Series Xenogen Hopkinton, Mass.). The photons emitted from the tissues were quantified by Living Images software (Xenogen, Hopkinton, Mass.) and were shown in FIG. 4A. In the FIG. 4A, the Y-axis shown the signal strength (photons/sec) that stands for total photons diffused from the mice.

NF-κB [2] = assay: Ex vivo bioluminescent imaging of organs, LPS-induced NF-κB/luc transgenic mice; format: in vivo; settings: group 2 (LPS IP) vs group 1 (PBS blank); up-regulation
Description: The mice of the three groups manipulated in example 3 were abdominally injected with 150 mg/Kg luciferin. After luciferin injection for 5 minutes, the mice were sacrificed and the tissues including brain, heart, lung, liver, spleen, stomach, kidney, ovary and intestine were rapidly removed. The collected tissues were placed in the IVIS Imaging System-200 Series (Xenogen, Hopkinton, Mass.) and imaged with the same setting used for in vivo bioluminescent imaging.
In the table 2, the average of luciferin value in the mice of the group 2 was divided to average of luciferin value in the mice of the group 1 to obtain the fold change. In table 3, the average of luciferin value in the mice of the group 3 was divided to the average of luciferin value in the mice of the group 2 to obtain the fold change.

lipopolysaccharide [LPS, reference compound]
increase of NF-κB-driven luminescent intensity (NF-κB [1]; LPS group vs blank group): approximately 10.95 fold
average of luciferin value (NF-κB [1]; group 2: LPS IP + water, 4 hours, blank group 1 2.92×10^7): 31.97×10^7 photons/sec
Fold change of the luciferin value, Brain (NF-κB [2]): 18.87 folds
Fold change of the luciferin value, Heart (NF-κB [2]): 6.03 folds
Fold change of the luciferin value, Intestine (NF-κB [2]): 55.63 folds
Fold change of the luciferin value, Kidney (NF-κB [2]): 93.78 folds
Fold change of the luciferin value, Liver (NF-κB [2]): 4.06 folds
Fold change of the luciferin value, Lung (NF-κB [2]): 11.90 folds
Fold change of the luciferin value, Ovary (NF-κB [2]): 5.35 folds
Fold change of the luciferin value, Spleen (NF-κB [2]): 5.57 folds
Fold change of the luciferin value, Stomach (NF-κB [2]): 4.95 folds
